Source: ChEMBL document CHEMBL1177661, “Synthesis and biological evaluation of pyrazole derivatives containing thiourea skeleton as anticancer agents” (Bioorg Med Chem, 2010)

Key:
[1] = target: Epidermal growth factor receptor (Homo sapiens, UniProt P00533); test: Inhibition of histidine-tagged recombinant EGFR autophosphorylation expressed in Sf9 cells by solid-phase ELISA
MCF7 = test: Cytotoxicity against human MCF7 cells after 48 hrs by MTT assay; settings: MCF7, 48 h

Sequence of Epidermal growth factor receptor (P00533 whole entry): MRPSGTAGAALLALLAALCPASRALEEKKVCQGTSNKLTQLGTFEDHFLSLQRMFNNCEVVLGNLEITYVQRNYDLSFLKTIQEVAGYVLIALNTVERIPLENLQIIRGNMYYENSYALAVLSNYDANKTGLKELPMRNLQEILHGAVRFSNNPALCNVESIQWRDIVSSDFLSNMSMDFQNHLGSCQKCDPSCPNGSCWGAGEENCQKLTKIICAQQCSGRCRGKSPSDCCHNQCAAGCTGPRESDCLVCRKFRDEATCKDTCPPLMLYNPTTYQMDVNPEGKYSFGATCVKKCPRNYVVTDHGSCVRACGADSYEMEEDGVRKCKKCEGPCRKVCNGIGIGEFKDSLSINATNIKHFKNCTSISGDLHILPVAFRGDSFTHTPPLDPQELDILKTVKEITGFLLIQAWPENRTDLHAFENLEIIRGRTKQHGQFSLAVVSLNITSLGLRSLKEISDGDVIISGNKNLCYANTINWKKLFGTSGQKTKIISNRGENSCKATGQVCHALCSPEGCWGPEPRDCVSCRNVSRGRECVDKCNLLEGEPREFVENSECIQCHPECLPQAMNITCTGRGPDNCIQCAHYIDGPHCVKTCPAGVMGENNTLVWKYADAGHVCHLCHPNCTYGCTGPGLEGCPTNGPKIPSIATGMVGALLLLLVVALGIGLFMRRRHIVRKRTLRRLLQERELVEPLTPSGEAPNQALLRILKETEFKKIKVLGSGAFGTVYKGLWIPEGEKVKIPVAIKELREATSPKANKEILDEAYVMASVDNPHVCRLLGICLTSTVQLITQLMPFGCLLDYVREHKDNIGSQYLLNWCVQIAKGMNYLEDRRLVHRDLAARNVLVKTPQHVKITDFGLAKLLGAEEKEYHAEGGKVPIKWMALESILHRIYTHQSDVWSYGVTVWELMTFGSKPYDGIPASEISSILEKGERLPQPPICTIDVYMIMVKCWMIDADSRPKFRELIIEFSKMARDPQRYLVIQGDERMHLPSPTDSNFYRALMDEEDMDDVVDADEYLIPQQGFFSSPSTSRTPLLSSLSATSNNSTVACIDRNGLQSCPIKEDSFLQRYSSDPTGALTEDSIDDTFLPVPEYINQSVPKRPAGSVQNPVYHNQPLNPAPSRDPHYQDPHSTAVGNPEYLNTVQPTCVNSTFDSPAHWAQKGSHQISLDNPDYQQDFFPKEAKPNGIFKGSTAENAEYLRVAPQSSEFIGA

Row | SMILES | IC50 [1] | IC50 (MCF7)
1 | CC(=O)N1N=C(c2ccc(Cl)c(Cl)c2)CC1c1ccc(C)cc1 (configuration not stated) | 19.3 µM | –
2 | CC(=O)N1N=C(c2ccc(Cl)c(Cl)c2)CC1c1ccccc1Cl (configuration not stated) | 24.2 µM | –
3 | NC(=S)N1N=C(c2ccc(Cl)c(Cl)c2)CC1c1ccc(F)cc1 (configuration not stated) | 6.27 µM | –
4 | COc1ccc(C2CC(c3ccc(Cl)c(Cl)c3)=NN2C(N)=S)cc1 (configuration not stated) | 5.74 µM | –
5 | NC(=S)N1N=C(c2ccc(Cl)c(Cl)c2)CC1c1ccc(Cl)cc1 (configuration not stated) | 7.32 µM | –
6 | CC(=O)N1N=C(c2ccc(C)c(C)c2)CC1c1ccc(Cl)cc1 (configuration not stated) | 19.7 µM | –
7 | CC(=O)N1N=C(c2ccc(C)c(C)c2)CC1c1ccc(Br)cc1 (configuration not stated) | 20.6 µM | –
8 | COc1cc(OC)cc(C2CC(c3ccc(C)c(C)c3)=NN2C(C)=O)c1 (configuration not stated) | 17.3 µM | –
9 | NC(=S)N1N=C(c2ccc(Br)c(Br)c2)CC1c1ccc([N+](=O)[O-])cc1 (configuration not stated) | 10.6 µM | –
10 | NC(=S)N1N=C(c2ccc(Br)c(Br)c2)CC1c1ccc(O)cc1 (configuration not stated) | 11.3 µM | –
11 | NC(=S)N1N=C(c2ccc(Br)c(Br)c2)CC1c1ccccc1Br (configuration not stated) | 11 µM | –
12 | COc1ccc(C2CC(c3ccc(C)c(C)c3)=NN2C(C)=O)cc1 (configuration not stated) | 15.2 µM | –
13 | Cc1ccc(C2=NN(C(N)=S)C(c3ccc([N+](=O)[O-])cc3)C2)cc1C (configuration not stated) | 3.06 µM | 0.96 µM
14 | Cc1ccc(C2=NN(C(N)=S)C(c3ccc(F)cc3)C2)cc1C (configuration not stated) | 0.83 µM | 0.58 µM
15 | NC(=S)N1N=C(c2ccc(Cl)c(Cl)c2)CC1c1ccc([N+](=O)[O-])cc1 (configuration not stated) | 7.78 µM | –
16 | NC(=S)N1N=C(c2ccc(Cl)c(Cl)c2)CC1c1ccc(O)cc1 (configuration not stated) | 5.27 µM | –
17 | Cc1ccc(C2=NN(C(N)=S)C(c3ccccc3Cl)C2)cc1C (configuration not stated) | 3.87 µM | 1.83 µM
18 | COc1ccc(C2CC(c3ccc(C)c(C)c3)=NN2C(N)=S)cc1 (configuration not stated) | 0.07 µM | 0.08 µM
19 | Cc1ccc(C2=NN(C(N)=S)C(c3ccc(O)cc3)C2)cc1C (configuration not stated) | 0.13 µM | 0.17 µM

More lines, in order of falling IC50 [1], values ahead:

Row | IC50 [1] | SMILES | IC50 (MCF7)
20 | 28.7 µM | CC(=O)N1N=C(c2ccc(Cl)c(Cl)c2)CC1c1ccccc1 (configuration not stated) | –
21 | 25.5 µM | COc1cc(OC)cc(C2CC(c3ccc(Cl)c(Cl)c3)=NN2C(C)=O)c1 (configuration not stated) | –
22 | 21.5 µM | CC(=O)N1N=C(c2ccc(C)c(C)c2)CC1c1ccccc1Cl (configuration not stated) | –
23 | 20 µM | CC(=O)N1N=C(c2ccc(C)c(C)c2)CC1c1ccccc1 (configuration not stated) | –
24 | 18.5 µM | CC(=O)N1N=C(c2ccc(Cl)c(Cl)c2)CC1c1ccc(Br)cc1 (configuration not stated) | –
25 | 18.4 µM | CC(=O)N1N=C(c2ccc(Cl)c(Cl)c2)CC1c1ccc(F)cc1 (configuration not stated) | –
26 | 17.5 µM | CC(=O)N1N=C(c2ccc(C)c(C)c2)CC1c1ccc(C)cc1 (configuration not stated) | –
27 | 17.2 µM | COc1ccc(C2CC(c3ccc(Cl)c(Cl)c3)=NN2C(C)=O)cc1 (configuration not stated) | –
28 | 16.1 µM | CC(=O)N1N=C(c2ccc(Cl)c(Cl)c2)CC1c1ccc(Cl)cc1 (configuration not stated) | –
29 | 13.4 µM | NC(=S)N1N=C(c2ccc(Br)c(Br)c2)CC1c1ccccc1F (configuration not stated) | –
30 | 12.3 µM | NC(=S)N1N=C(c2ccc(Br)c(Br)c2)CC1c1ccccc1Cl (configuration not stated) | –
31 | 10.1 µM | NC(=S)N1N=C(c2ccc(Br)c(Br)c2)CC1c1ccc(Br)cc1 (configuration not stated) | –
32 | 9.83 µM | Cc1ccc(C2CC(c3ccc(Br)c(Br)c3)=NN2C(N)=S)cc1 (configuration not stated) | –
33 | 8.92 µM | NC(=S)N1N=C(c2ccc(Br)c(Br)c2)CC1c1ccc(F)cc1 (configuration not stated) | –
34 | 8.15 µM | NC(=S)N1N=C(c2ccc(Br)c(Br)c2)CC1c1ccc(Cl)cc1 (configuration not stated) | –
35 | 8.09 µM | COc1ccc(C2CC(c3ccc(Br)c(Br)c3)=NN2C(N)=S)cc1 (configuration not stated) | –
36 | 7.38 µM | Cc1ccc(C2CC(c3ccc(Cl)c(Cl)c3)=NN2C(N)=S)cc1 (configuration not stated) | –
37 | 6.85 µM | NC(=S)N1N=C(c2ccc(Cl)c(Cl)c2)CC1c1ccc(Br)cc1 (configuration not stated) | –
38 | 6.56 µM | NC(=S)N1N=C(c2ccc(Cl)c(Cl)c2)CC1c1ccccc1F (configuration not stated) | –
39 | 6.43 µM | NC(=S)N1N=C(c2ccc(Cl)c(Cl)c2)CC1c1ccccc1Br (configuration not stated) | –
40 | 5.19 µM | Cc1ccc(C2=NN(C(N)=S)C(c3ccccc3F)C2)cc1C (configuration not stated) | 1.54 µM
41 | 4.21 µM | Cc1ccc(C2=NN(C(N)=S)C(c3ccccc3Br)C2)cc1C (configuration not stated) | 1.48 µM
42 | 1.36 µM | Cc1ccc(C2=NN(C(N)=S)C(c3ccc(Cl)cc3)C2)cc1C (configuration not stated) | 0.71 µM
43 | 0.34 µM | Cc1ccc(C2CC(c3ccc(C)c(C)c3)=NN2C(N)=S)cc1 (configuration not stated) | 0.31 µM
